Activity calls are given as the source filed them.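 Rule for the calls: active = growth-inhibition EC50 no more than tenfold above the top tested dose; inconclusive = flat fit between 30% and 70% inhibition, or unreliable fit; inactive = EC50 more than tenfold above the top tested dose.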

The subject of this test is E. coli NEB5alpha growth, BacTiter-Glo luminescence, 4 h. Briefly: Escherichia coli growth inhibition, dose response, counter-screen for MEX-5/POS-1 RNA-binding inhibitor project, luminescence, NEB5alpha (AID 1959).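 Note: pUC19-transformed ampicillin-resistant cells grown in LB with ampicillin.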 For orientation: A counterscreen serves to expose hits that act by an unwanted route or on another target.
Regarding `Cc1ccc(CS(=O)Cc2ccc(C(=O)N3CCN(c4ccccc4)CC3)o2)cc1` (stereo not given), the EC50 is > 11 µM (inactive).

Turning to `O=C1N=C(N2C=CC(=C3C=CNC=C3)C=C2)/C(=C/N=NC(=O)c2ccccc2O)S1`, the EC50 is > 11 µM (inactive).

Take `COCCn1c(N)c(NCc2ccccc2)c(=O)[nH]c1=O`: the EC50 is > 11 µM (inactive).

With `CCOC(CNC(=O)CCc1c(C)nc2nc(C)nn2c1C)OCC`, the EC50 is > 11 µM (inactive).

Consider `N#C/C(=C/c1ccc(CNS(=O)(=O)c2ccccc2)o1)C(=O)NCc1ccccc1`, for which the EC50 was > 11 µM (inactive).

Regarding `COC(=O)c1c(NC(=O)CC2Nc3ccccc3NC2=O)sc(C)c1C` (stereo not given), the EC50 is > 11 µM (inactive).

Turning to `Cc1ccc(N/C=C2/Sc3ccccc3NC2=O)cc1`, the EC50 was > 11 µM (inactive).

Take `O=C(N/N=C/c1c(O)n(Cc2ccccc2)c(=O)[nH]c1=O)c1ccncc1`: the EC50 was > 11 µM (inactive).

As to `COc1cc(C2C(C#N)=C(N)OC3=C2C(=O)CC(C)(C)C3)c([N+](=O)[O-])cc1OC` (stereo not given), the EC50 was > 11 µM (inactive).

Consider `Cc1nnc(N2C(=O)C(O)=C(C(=O)c3ccco3)C2c2ccc(F)cc2)s1` (stereo not given), for which the EC50 was > 11 µM (inactive).

Turning to `CC1(OC(=O)CCc2ccccc2)C(=O)C=C2C=C(C3CC3)OC=C2C1=O` (stereo not given), the EC50 was > 11 µM (inactive).

On to `Brc1cc2c(cc1C1Nc3ccccc3C3C=CCC31)OCO2` (stereo not given), for which the EC50 was > 11 µM (inactive).

Consider `COc1ccc(N=Cc2c(O)n(-c3cccc(C)n3)c(=O)c3ccccc23)c(OC)c1`, for which the EC50 was > 11 µM (inactive).

`COc1cccc(=O)c2c(C)oc(C)c12`: the EC50 is > 11 µM (inactive).

In the case of `N=c1c(C(=O)NC2CCCCC2)cc2c(=O)n3ccccc3nc2n1CCc1ccccc1`, the EC50 is > 11 µM (inactive).

Consider `C=CC1=C(C(=O)O)N2C(=O)[C@@H](NC(=O)/C(=N\O)c3csc(N)n3)[C@H]2SC1` (stereo in doubt), for which the EC50 is 0.521 µM.

Turning to `Cc1ccc(C)c(N2CCN(C(=O)c3cc4ccccn4n3)CC2)c1`, the EC50 was > 11 µM (inactive).

As for `O=C1c2cccc3cccc(c23)C(=O)N1/N=C/c1c(O)n(-c2ccccc2)c(=O)[nH]c1=O`, the EC50 was > 11 µM (inactive).

Take `CCCN1CCCc2cc(CN)ccc21`: the EC50 is > 11 µM (inactive).

Take `Cc1cccc(-c2c3c(=O)n(C)c(=O)n(C)c3c3cccnn23)c1`: the EC50 is > 11 µM (inactive).

`CCOCCCNC(=O)CCC(=O)NNc1nc2ccccc2c2nc(C)nn12`: the EC50 was > 11 µM (inactive).

As to `N#CC1=C(N)C2=C(N3CCCCC3)CCCC2C1(C#N)C#N` (stereo not given), the EC50 is > 11 µM (inactive).

In the case of `O=C(O)CCNc1ccc(NCCC(=O)O)c2c1C(=O)c1ccccc1C2=O`, the EC50 was > 11 µM (inactive).

As for `Cc1ccccc1N=C1NC(=O)/C(=C/c2cccn2-c2cccc(C(=O)O)c2)S1`, the EC50 was > 11 µM (inactive).

Take `COc1ccc(OC)c(N=Cc2c(O)n(Cc3ccccc3)c(=S)[nH]c2=O)c1`: the EC50 is > 11 µM (inactive).

In the case of `CC1=CC(C)(C)N2C(=O)C3(C(C#N)=C(N)OC4=C3C(=O)CCC4)c3c(C)c(C)cc1c32` (stereo not given), the EC50 was > 11 µM (inactive).

Take `Cn1ncc2c(NNC(=O)Cc3ccccc3)ncnc21`: the EC50 is > 11 µM (inactive).

In the case of `O=C1CS/C(=C\[N+](=O)[O-])N1c1ccccc1`, the EC50 was > 11 µM (inactive).

On to `CC1(C)CCCN(C(=O)c2coc(=O)c(Br)c2)C1`, for which the EC50 was > 11 µM (inactive).

Take `COC(=O)c1ccc(-n2c(C)cc(C(=O)CCl)c2C)cc1`: the EC50 is > 11 µM (inactive).

For `O=C(O)CSc1cc(NS(=O)(=O)c2ccc(Br)cc2)c2ccccc2c1O`, the EC50 is > 11 µM (inactive).

Turning to `CC(C)(C)OC(=O)NC(Cc1ccccc1)C(=O)N1CCC(C(=O)NCC(=O)Nc2ccc(F)cc2)CC1` (stereo not given), the EC50 was > 11 µM (inactive).

For the compound `COc1ccc(/C(C)=N/Nc2nc3ccccc3nc2C)cc1OC`, the EC50 is > 11 µM (inactive).

Take `COC(=O)c1c(=O)n(O)c2ccc(OC)cc2[n+]1[O-]`: the EC50 was > 11 µM (inactive).

Turning to `COc1cc(C2C(C#N)=C(N)OC3=C2C(=O)CCC3)ccc1OC(=O)N1CCOCC1` (stereo not given), the EC50 was > 11 µM (inactive).

As to `CC(=O)c1ccc(-c2ccc(/C=C(/Sc3n[nH]c(C)n3)C(=O)O)o2)cc1`, the EC50 was > 11 µM (inactive).

`CC(C)N1CCc2c(sc(NC(=O)c3ccc4ccccc4c3)c2C(N)=O)C1`: the EC50 was > 11 µM (inactive).

With `Cc1nc2ccc(N3CCN(C)CC3)cc2nc1C`, the EC50 was > 11 µM (inactive).

With `COC(=O)CCCC1=CC2=CC(=O)C(C)(OC(=O)c3cccs3)C(=O)C2=CO1` (stereo not given), the EC50 is > 11 µM (inactive).

`COc1ccc(C2C(C#N)=C(N)OC3=C2C(=O)CC(C)(C)C3)cc1` (stereo not given): the EC50 is > 11 µM (inactive).

On to `O=c1ccc2[n+]([O-])c3ccc(O)cc3oc-2c1`, for which the EC50 is > 11 µM (inactive).

With `COc1cc(S(=O)(=O)Nc2ccc(C)cc2)ccc1N=Cc1c(C)c(C#N)c(=O)n(C)c1O`, the EC50 is > 11 µM (inactive).

Consider `COC(=O)c1ccccc1NCc1cc(=O)oc2cc(O)c(O)cc12`, for which the EC50 is > 11 µM (inactive).

For `Cc1nc2c3ccccc3nc(NNC(=O)CCC(=O)N3CCCC(C)C3)n2n1` (stereo not given), the EC50 was > 11 µM (inactive).

With `CCCCn1c(O)c(/C=C2\C=Nc3ccccc32)c(=O)[nH]c1=O`, the EC50 is > 11 µM (inactive).

`CCOC(=O)/C=c1\s/c(=C\c2ccc(C#N)cc2)c(=O)n1CC(=O)NCc1ccco1`: the EC50 is > 11 µM (inactive).

In the case of `CN1CCN(/C=N/C2=C(C#N)C(c3ccccc3)C3=C(CC(C)(C)CC3=O)O2)CC1` (stereo not given), the EC50 was > 11 µM (inactive).

Regarding `CN(C)c1ccc2nc3ccc(=[N+](C)C)cc-3sc2c1`, the EC50 was > 11 µM (inactive).

For the compound `CC(C)(C)OC(=O)N1CC=C2C(C#N)=C(N)C(C#N)(C#N)[C@H](c3cccnc3)[C@H]2C1`, the EC50 was > 11 µM (inactive).

In the case of `CN1C(=O)C(=Cc2ccc(Sc3ccccc3)o2)C(=O)N(C)C1=S`, the EC50 was > 11 µM (inactive).

Take `CC1=Nc2ccccc2/C1=C\c1nc(-c2ccc(F)cc2)oc1O`: the EC50 is > 11 µM (inactive).

With `C=CCOc1cccc(C2C(C(=O)c3ccco3)=C(O)C(=O)N2Cc2ccco2)c1` (stereo not given), the EC50 is > 11 µM (inactive).

In the case of `COC(=O)CNc1cccc(C(F)(F)F)c1`, the EC50 was > 11 µM (inactive).

As to `N#Cc1cc(NC2CCCC2)c([N+](=O)[O-])cc1C#N`, the EC50 was > 11 µM (inactive).

Regarding `Cc1ccc(S(=O)(=O)C(C#N)c2nc3ccccc3nc2N2CCC(C)CC2)cc1` (stereo not given), the EC50 was > 11 µM (inactive).

On to `CCCCOC(=O)c1ccc(N=Nc2c(C)c(C#N)c(O)[nH]c2=O)cc1`, for which the EC50 was > 11 µM (inactive).

With `COc1ccc(C(=O)Nc2nc(-c3ccc([N+](=O)[O-])cc3)c(-c3ccccc3)s2)cc1`, the EC50 is > 11 µM (inactive).

Regarding `O=C1NC(=O)N(c2ccccc2)C(=O)/C1=C/c1coc2ccc(O)cc2c1=O`, the EC50 is > 11 µM (inactive).

As to `CC(=O)c1cc(NC(=O)c2ccc(Cl)cc2)c(=O)oc1/C=C/N(C)C`, the EC50 is > 11 µM (inactive).

Take `Oc1cccc(/C=N/N=C/c2cccc(O)c2O)c1O`: the EC50 is > 11 µM (inactive).

As to `Cc1ncc(/C=C2\C(=O)Nc3ccccc32)[nH]1`, the EC50 is > 11 µM (inactive).

For the compound `COc1ccc(/C=C2\CCCC(C(=O)C(F)(F)F)=C2O)cc1OC`, the EC50 was > 11 µM (inactive).

Turning to `CN1/C(=C/C=C(C#N)C#N)C(C)(C)c2ccccc21`, the EC50 is > 11 µM (inactive).

`C1=CC2c3ccccc3NC(c3ccncc3)C2C1` (stereo not given): the EC50 is > 11 µM (inactive).

Consider `Cc1ccccc1NS(=O)(=O)c1cc(C(=O)N2CCCC2)ccc1C`, for which the EC50 was > 11 µM (inactive).

For `COc1cccc(/C=N/NC(=O)c2ccc(=O)[nH]n2)c1O`, the EC50 was > 11 µM (inactive).

Take `Cc1sc(-n2c(C)cc(C=C3C(=O)NC(=O)NC3=O)c2C)c(C#N)c1C`: the EC50 is > 11 µM (inactive).

`Cc1cc(C=C2C(=O)c3ccccc3C2=O)c(C)n1-c1ccc(Cl)cc1`: the EC50 was > 11 µM (inactive).

With `CC1CCN(C(=O)CCN2C(=O)/C(=C/c3cccs3)SC2=S)CC1`, the EC50 was > 11 µM (inactive).

For the compound `Cc1ccc(N2C(=O)/C(=C/c3ccc(CN(CCC#N)S(C)(=O)=O)o3)C(=O)NC2=S)cc1C`, the EC50 is > 11 µM (inactive).

On to `C=CCn1cc(C=C2C(=O)NC(=O)NC2=O)c2ccccc21`, for which the EC50 is > 11 µM (inactive).

With `C=CCN1C(=O)/C(=C2/Sc3ccc(OC)cc3N2CC)SC1=S`, the EC50 was > 11 µM (inactive).

For `CN(C)c1ccc(/C=N/NC2=NS(=O)(=O)c3ccccc32)cc1`, the EC50 was > 11 µM (inactive).

With `Cn1cc(C2=C(c3ccc(Cl)cc3Cl)C(=O)NC2=O)c2ccccc21`, the EC50 was > 11 µM (inactive).

As to `CSc1nncc(/C(C)=N\Nc2ccccc2)n1`, the EC50 is > 11 µM (inactive).

For `Cc1ccc(N/C=C/C(=O)c2sc(-c3ccccc3)nc2C)cc1`, the EC50 is > 11 µM (inactive).

Take `CCN1C/C(=C/c2cccs2)c2nc3ccccc3c(C(=O)O)c2C1`: the EC50 was > 11 µM (inactive).

In the case of `CCOc1ccc(N2C(=O)/C(=C/c3ccc(C)o3)C(=O)NC2=S)cc1`, the EC50 was > 11 µM (inactive).

Consider `Cc1cccc(N2C(=O)/C(=C/c3ccc(N4CCN(C)CC4)o3)C(=O)NC2=S)c1C`, for which the EC50 is > 11 µM (inactive).

Regarding `CC(Cc1ccc(O)c(O)c1)C(C)Cc1ccc(O)c(O)c1` (stereo not given), the EC50 was > 11 µM (inactive).

As to `O=C1C2CC=C(Cl)CC2C(=O)N1CCCCCCN1C(=O)C2CC=C(Cl)CC2C1=O` (stereo not given), the EC50 was > 11 µM (inactive).

For `Cc1c(Cl)cccc1NC(=S)N1CCN(C(=O)C2CCCO2)CC1` (stereo not given), the EC50 is > 11 µM (inactive).

As to `CCOCCCn1c(=NC(C)=O)c(C#N)cc2c(=O)n3ccccc3nc21`, the EC50 is > 11 µM (inactive).

In the case of `CCC(Oc1ccccc1)C(=O)Nc1ccccn1` (stereo not given), the EC50 was > 11 µM (inactive).

Take `CO[C@H]1O[C@H](CBr)[C@@H](OC(=O)c2ccccc2)[C@H](O)[C@H]1O`: the EC50 was > 11 µM (inactive).

A word on the EC50: it is the concentration at which the effect is half-maximal.

The values are drawn from PubChem BioAssay AID1959 (Broad Institute, 2009).
